Key:
[1] = tested on: mouse colon carcinoma cells (C38); experiment: Mouse colon carcinoma (C38) spleen inoculation, liver metastasis; type: in vivo; details: 0.0001 mg/kg s.c. daily from one week before inoculation, day 23, p<0.05
Protocol: In this study 30.000 mouse colon carcinoma cells (C38) were inoculated into the spleen of C57BI/6 mice and macroscopic liver metastasis observed on day 23 after inoculation. In the experiment a group of mice pretreated daily subcutaneously for one week with 0.0001 mg/kg BPAP prior to the inoculation of 30.000 cells/animal and further treated until the end of the experiment (23rd day) whereas the control animals have not received BPAP.

[2] = tested on: catecholaminergic neurons; experiment: Comparison of CAE potency
Excerpt: All these differences in the efficiency between BPAP and Deprenyl came together from measuring their enhancer effect on the following four enhancer-sensitive brain regulations: dopaminergic, noradrenergic, serotonergic and TMS. Using the enhancer substances as specific experimental tools, we quite unexpectedly discovered the operation of an enhancer-sensitive TMS regulation in the rat brain. As expected, the majority of the enhancer-sensitive regulations and the endogenous enhancer substances pertaining to these regulations are unknown. Enhancer-research is obviously in its pioneer stage.

[3] = tested on: catecholaminergic neurons; experiment: Shuttle box: antagonism of tetrabenazine-induced learning deficit (conditioned avoidance reflex); type: in vivo, rat
Protocol: In a modified version of the shuttle box the acquisition of a two-way conditioned avoidance reflex (CAR) was analyzed during 5 consecutive days. The rat was put in a box divided inside into two parts by a barrier with a small gate in the middle, and the animal was trained to cross the barrier under the influence of a conditioned stimulus (CS, light flash). […] One trial consisted of 10 s intertrial interval, followed by 20 s CS. The last 5 s of CS overlaped the 5 s US. At each learning session, the number of CARs, EFs and intersignal reactions (IRs) are automatically counted and evaluated by multi-way ANOVA.
Tetrabenazine-treatment (1 mg/kg s.c.) depletes at least 90% of norepinephrine and dopamine from their stores in the nerve terminals of the catecholaminergic neurons in the brain stem. Due to the weak performance of the catecholaminergic brain engine, the activation of the cortical neurons remains below the level required for the acquisition of a CAR. The learning deficit caused by tetrabenazine-treatment can be antagonized by the administration of a synthetic CAE substance or an A-type MAO inhibitor, whereas selective inhibition of B-type MAO or inhibition of the reuptake of catecholamines and/or serotonin is ineffective (Knoll et al., 1992).

[4] = tested on: isolated locus coerulei of rats; details: Knoll et al., 1999, Miklya, Knoll B, 2002; cited from earlier work
[5] = tested on: isolated locus coerulei of rats; experiment: Norepinephrine release from isolated locus coerulei in organ bath; parameters: species or system rat; details: released within 20 min (FIG. 18)
Protocol: In this study (−)-BPAP was given to the organ bath of the quickly removed locus coerulei of rats. Eight organs were used for the analysis of each concentration. The amount of norepinephrine released within 20 min from the tissue in the presence of different concentrations of (−)-BPAP was measured according to Knoll and Miklya (1995) (Paired Student's t-test. *P<0.01, **P<0.001.)

[6] = tested on: mouse lung adenocarcinoma tumors; experiment: Mouse lung adenocarcinoma xenograft model in Balb/c nude mice; type: in vivo
Protocol: (§1) Mouse primary lung adenocarcinoma tumors maintained subcutaneously were utilized in the present study. Tumors with sizes of 3 mm in diameter were implanted subcutaneously in a total of 18 FVB/N female mice with a bodyweight of 25 g. From the day after tumor inoculation, 6-6 animals started receiving (−)-BPAP daily as a subcutaneous injection at a concentration of either 0.0001 mg/kg (low dose) or 0.05 mg/kg (high dose). Tumor sizes were measured twice a week using a digital caliper. Tumor volumes were calculated by the following formula: […]
(§2) Statistical analyses were made by Graphpad Prism 4.03 software. Significances of changes between control and (−)-BPAP-treated groups were assessed by using Mann-Whitney U-test. Significance was declared at the standard p<0.05 level.
Next, the same experiment was repeated using 18 Balb/c nude mice to explore whether the adaptive immune system plays a role in the tumor suppressor action of (−)-BPAP.

[7] = tested on: mouse lung adenocarcinoma tumors; experiment: Mouse lung adenocarcinoma xenograft model in FVB/N mice; type: in vivo
Protocol: as §1, §2

[8] = tested on: UW-228-2 cell line; experiment: MTT proliferation assay, UW-228-2 medulloblastoma cells; type: cell-based, human; details: for proliferation of cultured medulloblastoma cells: UW-228-2, monotherapy, nine concentrations 10^-14 to 10^-6 M, 72 hours
Protocol: Human medulloblastoma cell line, Daoy was purchased from ATCCC, UW-228 was obtained from the courtesy of Professor Silber (Univerity of Washington, Seattle, Wash., USA).
Daoy and UW-228-2 cell lines were maintained in culture medium (each 500 ml Minimum Essential Medium Eagle, Alpha Modification (M8042, Sigma, St Louis, USA) with 50 ml FCS (Gibco), 40 mg Gentamicin (Sandoz), 5 ml sodium-pyruvate (S8636, Sigma, St Louis, USA), 5 ml non-essential-amino acid solution (M7145, Sigma, St Louis, USA), 10 ml L-glutamin (Sigma, St Louis, USA) at 37° C. in humified 5% CO2.
In each well 3×10^3 Daoy or UW-228-2 cells were seeded in 96-well plates (Sarstedt), solved in 100 μl of its own medium with 10% FCS. 24 hours after seeding, cells were treated for 72 hours by drugs solved in further 100 μl medium. First, both cell lines were treated by (−)-BPAP and (−)-deprenil in monotherapy to determine its dose-effect curves in concentration of 10^−6, 10^−7, 10^−8, 10^−9, […], 10^−11, 10^−12, 10^−13 and 10^−14 M. In combined treatment 10^−3, 3.3×10^−4, […] and 3.7×10^−5 M of temozolomide (Schering Plough, USA) or 0.04, 0.2, 1, 5 μM of Cisplatin (Ebewe Pharma, Austria) or 0.04, 0.2, 1, 5 μM of etoposide (Ebewe Pharma, Austria) or 10^−7, 10^−6, 10^−5 and 10^−4 μM (UW228-2) or 0.001, 0.005, 0.025 and 0.125 μM (Daoy) of Vincristin (Richter Gedeon, Hungary) were applied in monotherapy or combined with 10^−13 or 10^−8 M of (−)-BPAP or (−)-deprenil.
Cell proliferation was evaluated by MTT (3-(4,5-Dimethylthiazol-2-yl)-2,5-diphenyltetrazolium bromide) assay (M5655, Sigma) after 72-hour treatment by the method described in manufacturer's protocol.

[9] = shuttle box, 1 mg/kg tetrabenazine s.c.
[10] = high dose 0.05 mg/kg s.c. daily

CCCN[C@H](CCC)Cc1cc2ccccc2o1 [(−)-BPAP, (2R)-1-(1-benzofuran-2-yl)-N-propylpentane-2-amine]
number of macroscopic liver metastasis [1]: 2 tumors/liver
potency as CAE substance relative to Deprenyl [2]: ~100 times
effect on tetrabenazine-induced learning deficit ([3]; 0.0001 mg/kg (FIG. 4)): antagonizing the tetrabenazine-induced learning deficit
dose with the non-specific enhancer effect selected for the longevity study [3, 9]: 0.05 mg/kg
optimal dose that exerted the specific enhancer effect [3, 9]: 0.1 µg/kg
very high dose range effective in antagonizing the tetrabenazine-induced learning deficit (MAO-A inhibition) [3, 9]: 2 to 10 mg/kg
concentration range of the specific enhancer effect on noradrenergic neurons [4]: femto/picomolar
concentration effect curve of norepinephrine release [5]: bi-modal, bell-shaped
tumor size versus control [6, 10]: did not cause significant changes in tumor size
tumor growth (tumor volume) versus control ([6]; low dose 0.0001 mg/kg s.c. daily): significant inhibition of tumor growth
tumor volume versus control [7, 10]: did not reach statistical significance
tumor volume versus control ([7]; low dose 0.0001 mg/kg s.c. daily, from day 12 after implantation, p<0.05): significant differences in tumor volume
effectiveness of tumor-cell proliferation inhibiting agents in combination ([8]; UW-228-2, 10^-13 or 10^-8 M combined with temozolomide, Cisplatin, etoposide or Vincristin): did not change the effectiveness
proliferation of cultured medulloblastoma cells [8]: did not inhibit the proliferation
proliferation of cultured medulloblastoma cells ([8]; listed as BPAP): none of the applied concentrations did Deprenyl or BPAP influence the proliferation

Reference: patent publication US10258599B2, “Compounds for use in the prevention or treatment of cancer” (SEMMELWEIS UNIVERSITY, priority 2014, dated 2019)
